# From patent US20190083521A1, “COMBINATION THERAPY FOR TREATING CANCER” (Epizyme, Inc., priority 2014, published 2019)
# Tested on: MOLM-13 (MLL-AF9) cells
# Test: Combination proliferation assay with Compound A2 (CellTiter-Glo, Chou-Talalay CI)
# Type: cell-based, human
# Settings: MOLM-13 (MLL-AF9); 7 Day Cotreatment Model
# Procedure: (§1) The acute myelogenous leukemia cell lines MV4-11 (MLL-AF4) and MOLM-13 (MLL-AF9) were obtained from American Type Culture Collection (ATCC; Rockville, Md.) and Deutsche Sammlung von Mikroorganismen and Zellkulturen (DSMZ; Braunschweig, Germany) respectively.
# (§2) Studies were performed using MLL-rearranged cell lines in vitro to evaluate the anti-proliferative effect of a combination of two agents together on cell growth. Initial proliferation studies were performed to determine the IC50 of a given compound in each cell line. The cell counts were measured by ATP quantitation using the Promega Cell Titer Glo kit and luminescence values corresponded to the amount of ATP in a given well.
# (§3) Compounds were evaluated for synergy in the co-treatment phase by testing the compounds in a concentration range which was bracketed around their IC50 values. The compounds were plated to a 96 well plate in a matrix format (FIG. 3) which includes increasing concentrations of each drug in the combination in a constant ratio, in addition to the effect of each compound alone in the study. Cells were seeded and grown in the log-linear phase for 3 or 7 days in the co-treatment phase. Minimum inhibition (DMSO alone) controls were used in each plate to calculate fraction affected (Fa) of a test well. DMSO concentration was kept at 0.1% v/v.
# (§4) The drug combination analysis was performed utilizing the Chou-Talalay method Synergy was determined using the software package Calcusyn by Biosoft. The combination index (CI) is a quantitative term used to describe the level of synergy or antagonism in a given test system. A combination index less than one indicates synergy, and a CI greater than one indicates antagonism. Further, strong synergism is achieved when the CI value falls below 0.3.
# (§5) The HP-D300 digital dispenser (Tecan) was used to dispense compounds in a combinatorial matrix. […] Cell viability was measured via ATP content using CellTiter-Glo® (Promega).
# (§6) Viability was determined using CellTiter-Glo® (Promega).
# Cell viability was measured via ATP content using CellTiter-Glo® (Promega).
# as §2, with “Proliferation studies” for “Studies”, “MOLM-13, MV4-11 and SKM-1” for “MLL-rearranged”, “cancer cell killing” for “anti-proliferative”, “IC50 values” for “IC50”, “correspond” for “corresponded”
# (§7) These studies were performed to evaluate both the combinatorial effect of compounds on cell killing and the durability of the effect by washing out one of the agents.
# (§8) Compounds evaluated for synergy in the co-treatment phase were tested in a range which was bracketed around the IC50's. The compounds were plated to a 96 well plate in a matrix format which includes increasing concentrations of each drug in the combination in a constant ratio, in addition to the effect of each compound alone in the study. Cells were seeded and grown in the log-linear phase for 3 or 7 days in the cotreatment phase. Maximum and minimum inhibition (DMSO alone) controls were used in each plate to calculate fraction affected (Fa) of a test well. DMSO concentration was kept at 0.1% v/v. The drug combination analysis was performed utilizing the Chou-Talalay method. Synergy was determined using the software package Calcusyn by Biosoft. The combination index (CI) is the term used to describe the level of synergy or antagonism in a given test system. A combination index less than one indicates synergy, and a CI greater than one indicates antagonism.
# (§9) The drug combination analysis was performed using the Chou-Talalay method. Graphs representing values of combination index (CI) versus Fractional effect (Fa) known as Fa-CI plots were generated and synergy was evaluated.
row,Structure (SMILES),Combination effect with Compound A2 (Table 4)
1,N[C@@H]1C[C@H]1c1ccccc1 (racemic) [Tranylcypromine],Strong Synergy
2,Cc1sc2c(c1C)C(c1ccc(Cl)cc1)=N[C@@H](CC(=O)OC(C)(C)C)c1nnc(C)n1-2 [JQ1],Additive (additive effect by CI equal to 1)
3,CCCc1cc2c(N3CCN(C4=NCC(C)(C)S4)CC3)ncnc2s1 [Menin-MLL inhibitor MI-2],Synergy (Drug synergy was statistically defined by CI values less than 1)

# Same assay, conditions: MOLM-13; 7 Day Cotreatment (Example 1)
row,Structure (SMILES),Combination effect with Compound A2
1,N[C@@H]1C[C@H]1c1ccccc1 (racemic) [Tranylcypromine],synergy
2,CC1(C)CCC(c2ccc(Cl)cc2)=C(CN2CCN(c3ccc(C(=O)NS(=O)(=O)c4ccc(N[C@H](CCN5CCOCC5)CSc5ccccc5)c(S(=O)(=O)C(F)(F)F)c4)cc3)CC2)C1 [Navitoclax],synergy

# Same assay, conditions: MOLM-13 MLL-AF9
row,Structure (SMILES),Combination effect with Compound A2 (Table 2)
1,Nc1ncn([C@H]2C[C@H](O)[C@@H](CO)O2)c(=O)n1 [Decitabine],Synergy (Drug synergy was statistically defined by CI values less than 1)
2,COc1cc2c(cc1-c1c(C)noc1C)ncc1[nH]c(=O)n([C@H](C)c3ccccn3)c12 [IBET-151],Synergy (Drug synergy was statistically defined by CI values less than 1)
3,Cc1sc2c(c1C)C(c1ccc(Cl)cc1)=N[C@@H](CC(=O)OC(C)(C)C)c1nnc(C)n1-2 [JQ1],Additive (additive effect by CI equal to 1)

# Tested on: MV4-11 (MLL-AF4) cells
# Test: as above
# Type: cell-based, human
# Settings: MV4-11 (MLL-AF4); 7 Day Cotreatment Model
# Procedure: as §1, §2, §3, §4, §5, §6
# as §2, with “Proliferation studies” for “Studies”, “MOLM-13, MV4-11 and SKM-1” for “MLL-rearranged”, “cancer cell killing” for “anti-proliferative”, “IC50 values” for “IC50”, “correspond” for “corresponded”
# as §7, §8
# as §9, with “evaluated. Drug synergy was statistically defined by CI values less than 1, antagonism by CI>1 and additive effect by CI equal to 1.” for “evaluated.”
row,Structure (SMILES),Combination effect with Compound A2 (Table 4)
1,N[C@@H]1C[C@H]1c1ccccc1 (racemic) [Tranylcypromine],Synergy (Drug synergy was statistically defined by CI values less than 1)
2,Cc1sc2c(c1C)C(c1ccc(Cl)cc1)=N[C@@H](CC(=O)OC(C)(C)C)c1nnc(C)n1-2 [JQ1],Additive (additive effect by CI equal to 1)
3,CCCc1cc2c(N3CCN(C4=NCC(C)(C)S4)CC3)ncnc2s1 [Menin-MLL inhibitor MI-2],Synergy (Drug synergy was statistically defined by CI values less than 1)

# Same assay, conditions: MV4-11; 7 Day Cotreatment (Example 1)
row,Structure (SMILES),Combination effect with Compound A2
1,N[C@@H]1C[C@H]1c1ccccc1 (racemic) [Tranylcypromine],synergy
2,COc1cc2c(cc1-c1c(C)noc1C)ncc1[nH]c(=O)n([C@H](C)c3ccccn3)c12 [IBET-151],Synergy (A combination index less than one indicates synergy)
3,CC1(C)CCC(c2ccc(Cl)cc2)=C(CN2CCN(c3ccc(C(=O)NS(=O)(=O)c4ccc(N[C@H](CCN5CCOCC5)CSc5ccccc5)c(S(=O)(=O)C(F)(F)F)c4)cc3)CC2)C1 [Navitoclax],synergy

# Same assay, conditions: MV4-11; 7 Day Cotreatment Model
row,Structure (SMILES),Combination effect with Compound A2 (Table 5)
1,Cn1cncc1[C@@](N)(c1ccc(Cl)cc1)c1ccc2c(c1)c(-c1cccc(Cl)c1)cc(=O)n2C [Tipifarnib],Synergy (Drug synergy was statistically defined by CI values less than 1)
2,CC[C@@H]1C(=O)N(C)c2cnc(Nc3ccc(C(=O)N[C@H]4CC[C@H](N5CCN(CC6CC6)CC5)CC4)cc3OC)nc2N1C(C)C [Volasertib],Antagonstic

# Same assay, conditions: MV4-11 MLL-AF4
row,Structure (SMILES),Combination effect with Compound A2 (Table 2)
1,Nc1ncn([C@H]2C[C@H](O)[C@@H](CO)O2)c(=O)n1 [Decitabine],Synergy (Drug synergy was statistically defined by CI values less than 1)
2,COc1cc2c(cc1-c1c(C)noc1C)ncc1[nH]c(=O)n([C@H](C)c3ccccn3)c12 [IBET-151],Synergy (Drug synergy was statistically defined by CI values less than 1)
3,Cc1sc2c(c1C)C(c1ccc(Cl)cc1)=N[C@@H](CC(=O)OC(C)(C)C)c1nnc(C)n1-2 [JQ1],Additive (additive effect by CI equal to 1)

# Tested on: MOLM-13 cells
# Test: Example 6 combination screen: 300 nM EPZ-5676 pre-treatment, second compound 72 h, ATPLite, IC50 shift
# Type: cell-based, human
# Settings: 300 nM EPZ-5676 pre-treatment (4 + 3 days) vs DMSO, then 2nd compound 72 h, IC50 shift of 2nd compound
# Procedure: (§10) Cells were then equilibrated in incubators for 24 hours before treatment with a second compound. Treated assay plates were incubated with a second compound for 72 hours. After this time, plates were developed for endpoint analysis using ATPLite to measure ATP content, which is used as an indicator of cell viability.
# (§11) “N/D” means that IC50 of the second compound could not be determined for both conditions.
row,Structure (SMILES),Summary of Combination Studies: MOLM-13
1,Clc1ccc(C2(c3ccc(-c4cn[nH]c4)cc3)CCNCC2)cc1 [AT7867],Synergy (considered synergistic if the IC50 value of the second compound decreased by 2-fold or more when EPZ-5676 was added as compared to the DMSO control)
2,CC(=O)OC[C@H]1O[C@@H]([S-])[C@H](OC(C)=O)[C@@H](OC(C)=O)[C@@H]1OC(C)=O.CCP(CC)CC.[Au+] [Auranofin],Synergy (considered synergistic if the IC50 value of the second compound decreased by 2-fold or more when EPZ-5676 was added as compared to the DMSO control)
3,Cc1cc(Cl)cc(OCCn2cc(F)cn2)c1-c1nc(N)nc2c1CN(C(=O)NCC(C)(F)F)C2 [BEP800],Synergy (considered synergistic if the IC50 value of the second compound decreased by 2-fold or more when EPZ-5676 was added as compared to the DMSO control)
4,O=C(/C=C/c1ccc(O)c(O)c1)OCCc1ccccc1 [CAPE],Synergy (considered synergistic if the IC50 value of the second compound decreased by 2-fold or more when EPZ-5676 was added as compared to the DMSO control)
5,Cc1sc2c(c1C)C(c1ccc(Cl)cc1)=N[C@@H](CC(N)=O)c1nnc(C)n1-2 [CPI-203],Synergy (considered synergistic if the IC50 value of the second compound decreased by 2-fold or more when EPZ-5676 was added as compared to the DMSO control)
6,N.N.[Cl][Pt][Cl] [Cisplatin],Synergy (considered synergistic if the IC50 value of the second compound decreased by 2-fold or more when EPZ-5676 was added as compared to the DMSO control)
7,c1ccc([C@@H]2C[C@H]2NC2CCNCC2)cc1 [GSK-LSD1],Synergy (considered synergistic if the IC50 value of the second compound decreased by 2-fold or more when EPZ-5676 was added as compared to the DMSO control)
8,c1ccc2c(CCNc3ccc(Nc4ccncc4)cc3)c[nH]c2c1 [JNJ 26854165],Synergy (considered synergistic if the IC50 value of the second compound decreased by 2-fold or more when EPZ-5676 was added as compared to the DMSO control)
9,COc1ccc(-c2ccc3c(N4CCOCC4)nc(N4C[C@@H](C)O[C@@H](C)C4)nc3n2)cc1CO [KU 0063794],Synergy (considered synergistic if the IC50 value of the second compound decreased by 2-fold or more when EPZ-5676 was added as compared to the DMSO control)
10,CC(=O)O/N=C1\C(=O)N(Cc2cc(Cl)ccc2Cl)c2ccc(Cl)cc21 [LDN 57444],Synergy (considered synergistic if the IC50 value of the second compound decreased by 2-fold or more when EPZ-5676 was added as compared to the DMSO control)
11,Nc1ccccc1NC(=O)c1ccc(CNC(=O)OCc2cccnc2)cc1 [MS-275],Synergy (considered synergistic if the IC50 value of the second compound decreased by 2-fold or more when EPZ-5676 was added as compared to the DMSO control)
12,O=c1cc(N2CCOCC2)oc2c(-c3cccc4c3sc3ccccc34)cccc12 [NU 7441],Synergy (considered synergistic if the IC50 value of the second compound decreased by 2-fold or more when EPZ-5676 was added as compared to the DMSO control)
13,COc1ccc(C2=N[C@@H](c3ccc(Cl)cc3)[C@@H](c3ccc(Cl)cc3)N2C(=O)N2CCNC(=O)C2)c(OC(C)C)c1 [Nutlin-3],Synergy (considered synergistic if the IC50 value of the second compound decreased by 2-fold or more when EPZ-5676 was added as compared to the DMSO control)
14,Cc1cccc(-c2[nH]c(C(C)(C)C)nc2-c2ccc3c(c2)OCO3)n1 [SB-505124],Synergy (considered synergistic if the IC50 value of the second compound decreased by 2-fold or more when EPZ-5676 was added as compared to the DMSO control)
15,O=C1c2ccccc2-c2nc3nonc3nc21 [SMER 3],Synergy (considered synergistic if the IC50 value of the second compound decreased by 2-fold or more when EPZ-5676 was added as compared to the DMSO control)

# Tested on: SKM-1 cells
# Test: as above
# Type: cell-based, human
# Settings: SKM-1 cells; 300 nM EPZ-5676 pre-treatment (4 + 3 days) vs DMSO, then 2nd compound 72 h; ATPLite; IC50 shift of 2nd compound
# Procedure: as §10, §11
row,Structure (SMILES),Summary of Combination Studies: SKM-1
1,O=C(/C=C/c1ccc(O)c(O)c1)OCCc1ccccc1 [CAPE],Synergy (considered synergistic if the IC50 value of the second compound decreased by 2-fold or more when EPZ-5676 was added as compared to the DMSO control)
2,Cc1sc2c(c1C)C(c1ccc(Cl)cc1)=N[C@@H](CC(N)=O)c1nnc(C)n1-2 [CPI-203],Synergy (considered synergistic if the IC50 value of the second compound decreased by 2-fold or more when EPZ-5676 was added as compared to the DMSO control)
3,COc1ccc(-c2ccc3c(N4CCOCC4)nc(N4C[C@@H](C)O[C@@H](C)C4)nc3n2)cc1CO [KU 0063794],Synergy (considered synergistic if the IC50 value of the second compound decreased by 2-fold or more when EPZ-5676 was added as compared to the DMSO control)
